From patent publication US9522154B2, “Method for scheduling ovulation” (LABORATOIRE HRA-PHARMA, priority 2013, dated 2016)

Legend:
leading ovarian follicle = assay: Clinical trial of a single oral 30 mg dose on the outcome of the leading ovarian follicle before LH surge; type: in vivo, human; conditions: follicle 14-16 mm
Procedure: The results from the clinical trial described in Example 2 were confirmed by a second clinical trial designed to evaluate the effect of a single oral dosage of 30 mg ulipristal acetate on the outcome of the leading ovarian follicle before LH surge, when the follicle was 14-16 mm in diameter. 31 women satisfying all the exclusion/inclusion criteria were enrolled. After the inclusion visit, the women entered the study and underwent ultrasound monitoring starting from Day 5 of their menstrual cycle until the lead follicle reached a diameter of 14-16 mm. At this time, the women received one single dosage of 30 mg ulipristal acetate orally. The women were then monitored daily by ultrasound and hormonal assays until the end of the 21 days treatment period or until ovulation occurred or until the mucus score reached 4 or less at 2 consecutive visits, whichever came first. After which point they were seen twice a week until the end of the study.

women [1] = conditions: single dose of 30 mg within 72 hours or 120 hours after the intercourse; cited from earlier work
women [2] = assay: Open-label trial of repeated ulipristal acetate 30 mg oral tablet, once weekly (Q7D) or every 5 days (Q5D) for 8 weeks: ovulation; type: in vivo, human
Procedure: In an open-label designed trial, 12 women received once weekly (Q7D) treatment with ulipristal acetate (30 mg oral tablet) for eight consecutive weeks starting on 7 days ±1 day after the onset of menses in the first cycle; and 11 women received ulipristal acetate 30 mg every 5 days (Q5D) for 8 weeks. […] The first ovulation occurred after a mean of 3.4 and 6.5 doses, and a mean of 17 and 26 days after start of treatment, in the Q7D and Q5D treatment arms, respectively.
Whenulipristal acetate was given during the follicular phase before the onset of the LH surge, ovulation occurred between 6 and 9 days of the last treatment intake in the majority of women.

## CC(=O)O[C@]1(C(C)=O)CC[C@H]2[C@@H]3CCC4=CC(=O)CCC4=C3[C@@H](c3ccc(N(C)C)cc3)C[C@@]21C [ulipristal acetate, 17α-acetoxy-11β-[4-N, N-dimethylamino-phenyl)-19-norpregna-4,9-diene-3,20-dione]
Leading ovarian follicle
  mean duration for the ovulation to occur: 7 days
  median duration for the ovulation to occur: 6 days
Leading ovarian follicle; 31 women
  Outcome of the leading follicle: Atresia, number of women: 0
  Outcome of the leading follicle: LUF, number of women: 2
  Outcome of the leading follicle: Luteal phase insufficiency, number of women: 1
  Outcome of the leading follicle: Ovulation, number of women: 27
  Outcome of the leading follicle: Persistent Follicle, number of women: 1
Women [1]
  avoidance of unwanted pregnancy (emergency contraception): safe and effective
Women [2]; Q5D arm, 30 mg every 5 days for 8 weeks
  mean time to first ovulation after start of treatment: 26 days
Women [2]; Q5D arm, 30 mg every 5 days for 8 weeks, 11 women
  mean number of doses until first ovulation: 6.5 doses
Women [2]; Q7D and Q5D regimens, majority of subjects
  inhibition of ovulation throughout the duration of treatment: Neither regimen inhibited ovulation throughout the duration of treatment in a majority of subjects
Women [2]; Q7D arm, 30 mg oral tablet once weekly for 8 weeks
  mean time to first ovulation after start of treatment: 17 days
Women [2]; Q7D arm, 30 mg oral tablet once weekly for 8 weeks, 12 women
  mean number of doses until first ovulation: 3.4 doses
Women [2]; after exposure to 30 mg
  parameters of the luteal phase (duration, progesterone levels): remain within the normal range
Women [2]; despite lengthened follicular phase and delay of LH surge, normal pregnancies after 30 mg exposure in emergency contraception trials
  fertilizability of the oocyte: the oocyte remains fertilizable
